Results from patent US11578069B2, “Compounds for inhibition of α4 β7 integrin” (Gilead Sciences, Inc., priority 2019, dated 2023).

Key:
α4β7 integrin = biological target: T1, α4β7 integrin (Homo sapiens, UniProt P13612+P26010); assay: α4β7 Integrin Cell Capture Assay; format: cell-based; conditions: capture of α4β7 integrin expressing RPM18866 cells on MadCAM-1 extracellular domain-coated plate
T1 construct: monitoring the capture of α4β7 integrin expressing cells; endogenous in cells; host or cells: RPMI8866
T1 sequence (P13612 34-1032): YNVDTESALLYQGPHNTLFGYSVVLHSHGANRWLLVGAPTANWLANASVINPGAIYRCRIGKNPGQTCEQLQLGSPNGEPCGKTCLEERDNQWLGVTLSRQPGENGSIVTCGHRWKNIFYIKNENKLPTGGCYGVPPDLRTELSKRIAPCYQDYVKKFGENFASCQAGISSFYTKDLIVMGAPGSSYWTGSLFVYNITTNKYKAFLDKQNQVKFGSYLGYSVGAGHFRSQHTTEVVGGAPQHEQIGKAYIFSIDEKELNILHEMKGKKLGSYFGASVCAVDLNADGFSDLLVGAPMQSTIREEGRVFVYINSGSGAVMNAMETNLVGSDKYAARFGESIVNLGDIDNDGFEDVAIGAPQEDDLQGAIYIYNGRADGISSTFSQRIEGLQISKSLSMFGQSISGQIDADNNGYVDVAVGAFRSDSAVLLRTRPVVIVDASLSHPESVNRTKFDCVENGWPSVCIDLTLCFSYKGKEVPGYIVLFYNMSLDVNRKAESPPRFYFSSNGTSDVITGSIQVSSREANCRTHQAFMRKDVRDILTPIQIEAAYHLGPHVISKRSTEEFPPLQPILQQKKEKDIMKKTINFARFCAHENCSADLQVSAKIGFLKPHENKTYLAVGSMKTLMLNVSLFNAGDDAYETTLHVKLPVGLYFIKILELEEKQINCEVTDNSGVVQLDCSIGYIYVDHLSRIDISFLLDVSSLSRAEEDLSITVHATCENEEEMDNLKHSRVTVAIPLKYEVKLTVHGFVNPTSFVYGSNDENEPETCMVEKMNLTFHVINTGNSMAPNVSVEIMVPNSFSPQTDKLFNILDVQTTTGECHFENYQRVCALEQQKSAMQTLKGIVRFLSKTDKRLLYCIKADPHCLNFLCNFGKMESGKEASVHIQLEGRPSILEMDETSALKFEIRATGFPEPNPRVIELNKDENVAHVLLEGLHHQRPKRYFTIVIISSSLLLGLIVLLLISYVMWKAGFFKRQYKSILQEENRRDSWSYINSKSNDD
T1 sequence (P26010 20-798): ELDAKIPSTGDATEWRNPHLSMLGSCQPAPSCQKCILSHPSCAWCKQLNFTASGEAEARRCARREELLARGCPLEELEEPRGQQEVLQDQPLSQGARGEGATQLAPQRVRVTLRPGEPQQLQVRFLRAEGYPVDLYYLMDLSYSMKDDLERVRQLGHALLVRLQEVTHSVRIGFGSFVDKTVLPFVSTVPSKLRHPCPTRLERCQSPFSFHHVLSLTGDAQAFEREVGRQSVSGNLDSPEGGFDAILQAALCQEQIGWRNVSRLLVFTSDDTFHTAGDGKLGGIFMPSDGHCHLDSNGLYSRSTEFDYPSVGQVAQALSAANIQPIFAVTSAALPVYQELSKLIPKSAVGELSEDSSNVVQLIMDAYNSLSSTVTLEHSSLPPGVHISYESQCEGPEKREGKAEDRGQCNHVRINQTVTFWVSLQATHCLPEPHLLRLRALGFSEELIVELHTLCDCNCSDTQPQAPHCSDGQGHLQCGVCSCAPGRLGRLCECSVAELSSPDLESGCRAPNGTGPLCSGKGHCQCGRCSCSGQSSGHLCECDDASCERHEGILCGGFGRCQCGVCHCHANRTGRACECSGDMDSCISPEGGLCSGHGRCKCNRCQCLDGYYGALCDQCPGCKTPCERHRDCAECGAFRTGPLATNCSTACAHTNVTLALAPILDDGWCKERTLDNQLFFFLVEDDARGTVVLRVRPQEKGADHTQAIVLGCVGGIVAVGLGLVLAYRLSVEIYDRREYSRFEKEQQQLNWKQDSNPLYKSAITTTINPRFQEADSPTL
Description: The potency of inhibitors in preventing α4β7 integrin interaction with MadCAM-1 was measured by monitoring the capture of α4β7 integrin expressing cells on a recombinant MadCAM-1 extracellular domain-coated plate.
384-well plates (Corning 3702) were coated with MadCAM-1 extracellular domain by dispensing 20 μL of MAdCAM-1 at 1.0 μg/mL per well and incubating overnight at 4° C. The plates were then washed with PBS and blocked with 3% BSA for 2 hours before being washed again.
(§1) RPM18866 cells were spun down and re-suspended in assay medium (DMEM+0.5% FBS+0.5 mM MnCl2) at a density of 0.5×10^6 cells/mL. The cells were then dispensed (60 μL/well) to a 384-well plate (Greiner 781280) that was previously spotted with 60 nL of test compound per well. The plates were incubated at 37° C. for 1 hour. 50 μL of cells were transferred to the blocked, MadCAM-1-coated plates and incubated for 30 minutes at 37° C. 10 μL of 12% glutaraldehyde containing Hoechst 33342 (0.06 mg/mL) was added to the cells (2% glutaraldehyde and 0.01 mg/mL final concentrations). The plates were incubated for 90 minutes at room temperature. The plates were then washed 3 times with 70 μL of PBS per well and imaged on a Cellomics ArrayScan instrument. The cells that were bound to the plate were counted and plotted against the compound concentration to determine the EC50 of the test compounds.

α4β1 integrin = biological target: T2, α4β1 integrin (Homo sapiens, UniProt P05556+P13612); assay: α4β1 Cell Capture Assay; format: cell-based; conditions: capture of α4β1 expressing Jurkat cells on VCAM-1 extracellular domain-coated plate
T2 construct: monitoring the capture of α4β1 expressing cells; endogenous in cells; host or cells: Jurkat
T2 sequence (P05556 21-798, one chain of several): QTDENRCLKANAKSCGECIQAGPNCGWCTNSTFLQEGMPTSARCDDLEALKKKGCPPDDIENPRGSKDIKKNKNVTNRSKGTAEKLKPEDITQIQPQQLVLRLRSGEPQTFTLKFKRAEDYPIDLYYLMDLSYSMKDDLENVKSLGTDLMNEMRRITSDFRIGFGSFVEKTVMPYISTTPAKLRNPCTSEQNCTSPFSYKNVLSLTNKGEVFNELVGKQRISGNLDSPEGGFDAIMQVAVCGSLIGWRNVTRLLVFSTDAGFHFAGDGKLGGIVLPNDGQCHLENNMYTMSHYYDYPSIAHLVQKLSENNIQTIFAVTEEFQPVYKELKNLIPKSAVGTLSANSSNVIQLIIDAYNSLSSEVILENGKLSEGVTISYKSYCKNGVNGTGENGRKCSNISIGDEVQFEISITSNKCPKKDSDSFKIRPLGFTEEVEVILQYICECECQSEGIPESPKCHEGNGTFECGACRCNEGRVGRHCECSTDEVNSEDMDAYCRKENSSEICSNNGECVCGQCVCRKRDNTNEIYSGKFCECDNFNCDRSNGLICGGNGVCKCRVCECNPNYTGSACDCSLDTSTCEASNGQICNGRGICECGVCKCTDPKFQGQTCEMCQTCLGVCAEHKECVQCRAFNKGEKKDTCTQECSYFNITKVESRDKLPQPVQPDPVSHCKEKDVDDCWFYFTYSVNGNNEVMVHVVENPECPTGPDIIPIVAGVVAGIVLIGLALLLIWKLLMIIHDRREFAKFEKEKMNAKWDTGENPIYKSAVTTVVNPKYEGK
Description: The potency of inhibitors in preventing α4β1 integrin interaction with VCAM-1 was measured by monitoring the capture of α4β1 expressing cells to a recombinant VCAM-1 extracellular domain-coated plate.
384-well plates (Corning 3702) were coated with VCAM-1 extracellular domain by dispensing 20 μL of VCAM-1 at 0.5 μg/ml per well and incubating overnight at 4° C. The plates were then washed with PBS and blocked with 3% BSA for 2 hours before being washed again.
as §1, with “Jurkat cells” for “RPM18866 cells”, “0.5×10^6 cells/ml.” for “0.5×10^6 cells/mL.”, “blocked, VCAM-1-coated” for “blocked, MadCAM-1-coated”, “10 μl” for “10 μL”, “0.01 mg/ml Hoechst 33342” for “0.01 mg/mL”

Compound	EC50 (α4β7 integrin; Table 1)	EC50 (α4β1 integrin; Table 1)	EC50 (α4β7 integrin; Table 2)	EC50 (α4β1 integrin; Table 2)
Cn1c(=O)n(-c2ccc(C[C@H](NC(=O)c3c(F)cc(N4CCOC[C@@H]4C(F)(F)F)cc3F)C(=O)O)cn2)c(=O)c2ccncc21 [Example 13, (S)-2-(2,6-difluoro-4-((R)-3-(trifluoromethyl)morpholino)benzamido)-3-(6-(1-methyl-2,4-dioxo-1,4-dihydropyrido[3,4-d]pyrimidin-3(2H)-yl)pyridin-3-yl)propanoic acid]	0.8 nM	38.9 nM		
Cc1cc(N2CCOC[C@@H]2C(F)(F)F)cc(F)c1C(=O)N[C@@H](Cc1ccc(-n2c(=O)c3ccncc3n(C)c2=O)nc1)C(=O)O [Example 15, (S)-2-(2-fluoro-6-methyl-4-((R)-3-(trifluoromethyl)morpholino)benzamido)-3-(6-(1-methyl-2,4-dioxo-1,4-dihydropyrido[3,4-d]pyrimidin-3(2H)-yl)pyridin-3-yl)propanoic acid]	0.21 nM	10.6 nM		
CC[C@@H](Nc1cc(F)c(C(=O)N[C@@H](Cc2ccc(-n3c(=O)c4ccncc4n(C)c3=O)nc2)C(=O)O)c(F)c1F)C(F)(F)F [Example 17, (S)-3-(6-(1-methyl-2,4-dioxo-1,4-dihydropyrido[3,4-d]pyrimidin-3(2H)-yl)pyridin-3-yl)-2-(2,3,6-trifluoro-4-(((R)-1,1,1-trifluorobutan-2-yl)amino)benzamido)propanoic acid]	0.7 nM	58.9 nM		
CC[C@@H](N(c1cc(F)c(C(=O)N[C@@H](Cc2ccc(-n3c(=O)c4ccncc4n(C)c3=O)nc2)C(=O)O)c(F)c1)C1CC1)C(F)(F)F [Example 19, (S)-2-(4-(cyclopropyl((R)-1,1,1-trifluorobutan-2-yl)amino)-2,6-difluorobenzamido)-3-(6-(1-methyl-2,4-dioxo-1,4-dihydropyrido[3,4-d]pyrimidin-3(2H)-yl)pyridin-3-yl)propanoic acid]	2 nM	127 nM		
Cc1cc(N2CCOC[C@@H]2C(F)(F)F)cc(F)c1C(=O)N[C@@H](Cc1ccc(-n2c(=O)c3ccncc3n(C)c2=O)cn1)C(=O)O [Example 23, (S)-2-(2-fluoro-6-methyl-4-((R)-3-(trifluoromethyl)morpholino)benzamido)-3-(5-(1-methyl-2,4-dioxo-1,4-dihydropyrido[3,4-d]pyrimidin-3(2H)-yl)pyridin-2-yl)propanoic acid]	0.2 nM	9.8 nM		
Cc1cc(N2CCOC[C@@H]2C(F)(F)F)cc(F)c1C(=O)N[C@@H](Cc1ccc(-n2c(=O)c3ccncc3n(C)c2=O)cc1)C(=O)O [Example 25, (S)-2-(2-fluoro-6-methyl-4-((R)-3-(trifluoromethyl)morpholino)benzamido)-3-(4-(1-methyl-2,4-dioxo-1,4-dihydropyrido[3,4-d]pyrimidin-3(2H)-yl)phenyl)propanoic acid]	0.1 nM	3.4 nM		
COc1cc(C[C@H](NC(=O)c2c(C)cc(N3CCOC[C@@H]3C(F)(F)F)cc2F)C(=O)O)ccc1-n1c(=O)c2ccncc2n(C)c1=O [Example 27, (S)-2-(2-fluoro-6-methyl-4-((R)-3-(trifluoromethyl)morpholino)benzamido)-3-(3-methoxy-4-(1-methyl-2,4-dioxo-1,4-dihydropyrido[3,4-d]pyrimidin-3(2H)-yl)phenyl)propanoic acid]	0.1 nM	8.6 nM		

Further lines, results first:

EC50 (α4β7 integrin; Table 1)	EC50 (α4β1 integrin; Table 1)	EC50 (α4β7 integrin; Table 2)	EC50 (α4β1 integrin; Table 2)	Compound
		7.2 nM	70.7 nM	CCOCc1cc(OC)c(-c2ccc(C[C@H](NC(=O)c3c(F)cc(N[C@H](c4ccccc4)C(F)(F)F)cc3F)C(=O)O)cc2)c(OC)c1 [Example 28]
		0.6 nM	29 nM	Cc1cc(C[C@H](NC(=O)c2c(F)cc(N3CCOC[C@@H]3C(F)(F)F)cc2F)C(=O)O)ccc1-c1c(C(F)(F)F)cc(C)n(C)c1=O [Example 29]
		0.5 nM	10.1 nM	COc1cc(C)n(C)c(=O)c1-c1ccc(C[C@H](NC(=O)c2c(F)cc(N3CCOC[C@@H]3C(F)(F)F)cc2F)C(=O)O)cc1 [Example 30]
		0.2 nM	11.6 nM	Cc1cc(C[C@H](NC(=O)c2c(C)cc(N3CCOC[C@@H]3C(F)(F)F)cc2F)C(=O)O)ccc1-c1c(C)n(C)c(=O)n(C)c1=O [Example 31]
		1.2 nM	14.4 nM	CC[C@@H](Nc1cc(F)c(C(=O)N[C@@H](Cc2ccc(-c3c(C)n(C)c(=O)n(C)c3=O)cc2)C(=O)O)c(F)c1)C(F)(F)F [Example 32]
		2.5 nM	105 nM	CC[C@@H](Nc1cc(F)c(C(=O)N[C@@H](Cc2ccc(-n3c(=O)c4cc(N(C)C)ccc4n(C)c3=O)cc2)C(=O)O)c(F)c1)C(F)(F)F [Example 33]
		3.2 nM	61.4 nM	CC[C@@H](Nc1cc(F)c(C(=O)N[C@@H](Cc2ccc(-c3c(C)c4cc(F)ccc4n(C)c3=O)cc2)C(=O)O)c(F)c1)C(F)(F)F [Example 34]
		1.1 nM	34.1 nM	Cn1c(=O)c(-c2ccc(C[C@H](NC(=O)c3c(F)cc(N4CCOC[C@@H]4C(F)(F)F)cc3F)C(=O)O)cc2)cc2cnccc21 [Example 35]
		1.2 nM	27.3 nM	CN(C)c1ccc2c(c1)c(=O)n(-c1ccc(C[C@H](NC(=O)c3c(F)cc(N4CCOC[C@@H]4C(F)(F)F)cc3F)C(=O)O)cc1)c(=O)n2C [Example 36]
